We go through 3 molecules from patent publication US11365184B2, “Antiproliferative compounds, and their pharmaceutical compositions and uses” (Celgene Corporation, priority 2016, dated 2022).

The subject of this assay is KG-1 cell line. The assay is described as follows: KG-1 cell proliferation assay (Cell Titer-Glo). The assay is classed as cell-based. The following applies: Homo sapiens; KG-1 cells, 72 hours post-treatment, Cell Titer-Glo luminescence; read-out: FCA Prolif Cell TiterGlo KG-1 72 h (IC50). Here is the method:
The following is an example of an assay that can be used to determine the anti-proliferative activity of Compound A and Compound B in KG-1 cell line (American Type Culture Collection [ATCC]: catalogue number ATCC© CCL-246™) at 72 hours post-treatment. The seeding density for KG-1 can be optimized to ensure assay linearity in 384-well plates.
Increasing concentrations of test compounds (0.5 nM to 10 μM) was spotted in a 10-point serial dilution fashion (3-fold dilution) in duplicate via an acoustic dispenser (EDC ATS-100) into an empty 384-well plate. The dimethyl sulfoxide (DMSO) concentration was kept constant for a final assay concentration of 0.1% DMSO. Prior to testing, KG-1 cells were grown in RPMI-1640 (Roswell Park Memorial Institute-1640) medium with 10% FBS (fetal bovine serum: HyClone) and expanded in culture flasks to provide sufficient amounts of starting material. Cells were then diluted to 5000 cells per well, in a 50 μL volume and added directly to the compound-spotted 384-well plates. Cells were allowed to grow for 72 hours in 5% CO2 at 37° C. At the time when exposure of cells to compound began (to), initial viable cell number was assessed via Cell Titer-Glo® Luminescent Cell Viability Assay at a 1 vol: 2 vol ratio according to manufacturer's instructions (Promega Corporation, Madison, Wis.) by quantifying the level of luminescence generated by adenosine-5′-triphosphate (ATP) present in viable cells. After 72 hours, cell viability of the treated cells is assessed via Cell Titer-Glo® and read for luminescence.
On the technique in general: ATP-based viability assays read luminescence as a measure of living cells.

Molecules are shown by their SMILES.

One may read the IC50 as the concentration needed to halve the response being measured. As to `O=C1CCC(N2Cc3cc(CNC(=O)C(F)(F)c4ccc(F)cc4)ccc3C2=O)C(=O)N1COP(=O)(O)O` (stereo not drawn), the IC50 fell in the range of 100 to 700 nM.
Regarding `CC(C)[C@H](N)C(=O)OCN1C(=O)CCC(N2Cc3cc(CNC(=O)C(F)(F)c4ccc(F)cc4)ccc3C2=O)C1=O` (stereo partly drawn), the IC50 lay within 10 to 100 nM.
For `O=C1CCC(N2Cc3cc(CNC(=O)C(F)(F)c4ccc(Cl)cc4)ccc3C2=O)C(=O)N1COP(=O)(O)O` (stereo not drawn) the value was 100 to 700 nM.
